Measured values from patent US5556744A, “Methods and compositions for diagnosing and treating certain HIV infected patients” (The Trustees of the University of Pennsylvania, priority 1994, dated 1996).

Legend:
[1] = test system: maternal HIV+ sera (antibodies); experiment: RIA / ELISA binding of maternal HIV+ sera to gp120 and gp41 peptides (Example 3); design: species or system human
How it was run: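 Peptides were coated at 10 μg/ml in carbonate buffer pH 9.6 and blocked with 1% BSA. Sera at 1:50 and 1:500 were incubated overnight at 4°C and detected with ¹²⁵I anti-human IgG (RIA) or HRP/TMB at OD450 (ELISA). Specific binding was taken as peptide minus no-peptide wells, scored as a ratio to normal human serum.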

[2] = test system: maternal sera (antibodies); experiment: ELISA peptide-binding of maternal sera (Example 6); design: species or system human; details: for Number of Non-Transmitters which bound to peptide / Percent of Non-Transmitters which bound to peptide: N = 12; for Number of Transmitters which bound to peptide / Percent of Transmitters which bound to peptide: N = 4
How it was run: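 Third-trimester maternal sera, from HIV-1 transmitting and non-transmitting mothers, were tested by ELISA against ~16-residue peptides spanning HIV-1 external and transmembrane glycoproteins. Each serum was run with at least 40 peptides, and values are the percentage of sera binding each peptide.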

[3] = Serum No. 1, Non-Transmission Group
[4] = Serum No. 2, Non-Transmission Group
[5] = Serum No. 3, Non-Transmission Group
[6] = Serum No. 4, Transmission Group
[7] = Serum No. 5, Transmission Group
[8] = Serum No. 6, Non-Transmission Group
[9] = Serum No. 7, Non-Transmission Group
[10] = Serum No. 8, Non-Transmission Group
[11] = Serum No. 9, Non-Transmission Group
[12] = Serum No. 10, Transmission Group
[13] = Serum No. 11, Non-Transmission Group
[14] = Serum No. 12, Non-Transmission Group
[15] = Serum No. 13, Transmission Group
[16] = Serum No. 14, Transmission Group
[17] = Serum No. 15, Transmission Group
[18] = Serum No. 16, Non-Transmission Group
[19] = Serum No. 17, Non-Transmission Group
[20] = Serum No. 18, Non-Transmission Group
[21] = Serum No. 19, Transmission Group
[22] = Serum No. 20, Non-Transmission Group

Sequence | Binding of maternal HIV+ serum to peptide (sera/NHS ratio) [1, 3] | Binding of maternal HIV+ serum to peptide (sera/NHS ratio) [1, 4] | Binding of maternal HIV+ serum to peptide (sera/NHS ratio) [1, 5] | Binding of maternal HIV+ serum to peptide (sera/NHS ratio) [1, 6] | Binding of maternal HIV+ serum to peptide (sera/NHS ratio) [1, 7] | Binding of maternal HIV+ serum to peptide (sera/NHS ratio) [1, 8] | Binding of maternal HIV+ serum to peptide (sera/NHS ratio) [1, 9] | Binding of maternal HIV+ serum to peptide (sera/NHS ratio) [1, 10] | Binding of maternal HIV+ serum to peptide (sera/NHS ratio) [1, 11] | Binding of maternal HIV+ serum to peptide (sera/NHS ratio) [1, 12] | Binding of maternal HIV+ serum to peptide (sera/NHS ratio) [1, 13] | Binding of maternal HIV+ serum to peptide (sera/NHS ratio) [1, 14] | Binding of maternal HIV+ serum to peptide (sera/NHS ratio) [1, 15] | Binding of maternal HIV+ serum to peptide (sera/NHS ratio) [1, 16] | Binding of maternal HIV+ serum to peptide (sera/NHS ratio) [1, 17] | Binding of maternal HIV+ serum to peptide (sera/NHS ratio) [1, 18] | Binding of maternal HIV+ serum to peptide (sera/NHS ratio) [1, 19] | Binding of maternal HIV+ serum to peptide (sera/NHS ratio) [1, 20] | Binding of maternal HIV+ serum to peptide (sera/NHS ratio) [1, 21] | Binding of maternal HIV+ serum to peptide (sera/NHS ratio) [1, 22] | also measured
EGGERDRDRSIRLVN [Peptide 129] | + (which value is between 2 to 3) | - (specific OD450 or cpm of sera sample binding to peptide divided by the specific OD450 or cpm of NHS sample binding to peptide, which value is less than 2) | - (specific OD450 or cpm of sera sample binding to peptide divided by the specific OD450 or cpm of NHS sample binding to peptide, which value is less than 2) | - (specific OD450 or cpm of sera sample binding to peptide divided by the specific OD450 or cpm of NHS sample binding to peptide, which value is less than 2) | - (specific OD450 or cpm of sera sample binding to peptide divided by the specific OD450 or cpm of NHS sample binding to peptide, which value is less than 2) | - (specific OD450 or cpm of sera sample binding to peptide divided by the specific OD450 or cpm of NHS sample binding to peptide, which value is less than 2) | - (specific OD450 or cpm of sera sample binding to peptide divided by the specific OD450 or cpm of NHS sample binding to peptide, which value is less than 2) | - (specific OD450 or cpm of sera sample binding to peptide divided by the specific OD450 or cpm of NHS sample binding to peptide, which value is less than 2) | - (specific OD450 or cpm of sera sample binding to peptide divided by the specific OD450 or cpm of NHS sample binding to peptide, which value is less than 2) | - (specific OD450 or cpm of sera sample binding to peptide divided by the specific OD450 or cpm of NHS sample binding to peptide, which value is less than 2) | - (specific OD450 or cpm of sera sample binding to peptide divided by the specific OD450 or cpm of NHS sample binding to peptide, which value is less than 2) | - (specific OD450 or cpm of sera sample binding to peptide divided by the specific OD450 or cpm of NHS sample binding to peptide, which value is less than 2) | - (specific OD450 or cpm of sera sample binding to peptide divided by the specific OD450 or cpm of NHS sample binding to peptide, which value is less than 2) | - (specific OD450 or cpm of sera sample binding to peptide divided by the specific OD450 or cpm of NHS sample binding to peptide, which value is less than 2) | - (specific OD450 or cpm of sera sample binding to peptide divided by the specific OD450 or cpm of NHS sample binding to peptide, which value is less than 2) | - (specific OD450 or cpm of sera sample binding to peptide divided by the specific OD450 or cpm of NHS sample binding to peptide, which value is less than 2) | - (specific OD450 or cpm of sera sample binding to peptide divided by the specific OD450 or cpm of NHS sample binding to peptide, which value is less than 2) | - (specific OD450 or cpm of sera sample binding to peptide divided by the specific OD450 or cpm of NHS sample binding to peptide, which value is less than 2) | - (specific OD450 or cpm of sera sample binding to peptide divided by the specific OD450 or cpm of NHS sample binding to peptide, which value is less than 2) | - (specific OD450 or cpm of sera sample binding to peptide divided by the specific OD450 or cpm of NHS sample binding to peptide, which value is less than 2) | Number of Non-Transmitters which bound to peptide [2]: 0; Percent of Non-Transmitters which bound to peptide [2]: 0%; Number of Transmitters which bound to peptide [2]: 0; Percent of Transmitters which bound to peptide [2]: 0%
FSYHRLRDLLLIVTR [Peptide 132] | + (which value is between 2 to 3) | - (specific OD450 or cpm of sera sample binding to peptide divided by the specific OD450 or cpm of NHS sample binding to peptide, which value is less than 2) | - (specific OD450 or cpm of sera sample binding to peptide divided by the specific OD450 or cpm of NHS sample binding to peptide, which value is less than 2) | - (specific OD450 or cpm of sera sample binding to peptide divided by the specific OD450 or cpm of NHS sample binding to peptide, which value is less than 2) | - (specific OD450 or cpm of sera sample binding to peptide divided by the specific OD450 or cpm of NHS sample binding to peptide, which value is less than 2) | - (specific OD450 or cpm of sera sample binding to peptide divided by the specific OD450 or cpm of NHS sample binding to peptide, which value is less than 2) | - (specific OD450 or cpm of sera sample binding to peptide divided by the specific OD450 or cpm of NHS sample binding to peptide, which value is less than 2) | - (specific OD450 or cpm of sera sample binding to peptide divided by the specific OD450 or cpm of NHS sample binding to peptide, which value is less than 2) | + (which value is between 2 to 3) | - (specific OD450 or cpm of sera sample binding to peptide divided by the specific OD450 or cpm of NHS sample binding to peptide, which value is less than 2) | - (specific OD450 or cpm of sera sample binding to peptide divided by the specific OD450 or cpm of NHS sample binding to peptide, which value is less than 2) | - (specific OD450 or cpm of sera sample binding to peptide divided by the specific OD450 or cpm of NHS sample binding to peptide, which value is less than 2) | - (specific OD450 or cpm of sera sample binding to peptide divided by the specific OD450 or cpm of NHS sample binding to peptide, which value is less than 2) | - (specific OD450 or cpm of sera sample binding to peptide divided by the specific OD450 or cpm of NHS sample binding to peptide, which value is less than 2) | - (specific OD450 or cpm of sera sample binding to peptide divided by the specific OD450 or cpm of NHS sample binding to peptide, which value is less than 2) | - (specific OD450 or cpm of sera sample binding to peptide divided by the specific OD450 or cpm of NHS sample binding to peptide, which value is less than 2) | - (specific OD450 or cpm of sera sample binding to peptide divided by the specific OD450 or cpm of NHS sample binding to peptide, which value is less than 2) | - (specific OD450 or cpm of sera sample binding to peptide divided by the specific OD450 or cpm of NHS sample binding to peptide, which value is less than 2) | - (specific OD450 or cpm of sera sample binding to peptide divided by the specific OD450 or cpm of NHS sample binding to peptide, which value is less than 2) | - (specific OD450 or cpm of sera sample binding to peptide divided by the specific OD450 or cpm of NHS sample binding to peptide, which value is less than 2) | Number of Non-Transmitters which bound to peptide [2]: 1; Percent of Non-Transmitters which bound to peptide [2]: 83%; Number of Transmitters which bound to peptide [2]: 0; Percent of Transmitters which bound to peptide [2]: 0%
